Legend:
[1] = biological target: T1, M71 OR (Mus musculus, UniProt Q60893); assay: Two-bottle discrimination behavioral avoidance task (odor detection threshold) with 24dMACP; format: in vivo
T1 construct: the increase of OSNs expressing the M71 OR results in the coalescence of labeled axons; expressed in transfected cells; host or cells: olfactory sensory neurons of living transgenic mice (4•M71Cα, 5•M71Cα), made by pronuclear injection of the M71 minigene
T1 sequence (Q60893 1-309): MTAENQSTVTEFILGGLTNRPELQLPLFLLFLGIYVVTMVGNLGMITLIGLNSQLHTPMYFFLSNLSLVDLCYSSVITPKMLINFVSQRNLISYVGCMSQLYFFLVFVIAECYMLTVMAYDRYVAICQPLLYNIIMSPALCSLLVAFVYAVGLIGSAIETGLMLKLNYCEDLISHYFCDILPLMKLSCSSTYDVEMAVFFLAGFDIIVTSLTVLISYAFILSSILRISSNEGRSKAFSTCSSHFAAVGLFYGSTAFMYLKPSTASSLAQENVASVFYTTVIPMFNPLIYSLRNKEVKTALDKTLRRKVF
Protocol: Sensitivity studies performed in Wistar rat neonates and adults have shown that the highest sensitivity to an odor (lowest threshold) correlates with the highest OSN density in the MOE. […] Therefore, it was desirable to assess whether detection of the most robust M71 ligand is amplified in this M71 line. An avoidance task was used in which the odorant 24dMACP is added to drinking water and becomes an aversive stimulus associated with injection of Lithium Chloride (LiCl), a compound known to induce gastric malaise. After conditioning homozygous 4•M71Cα animals and their WT littermates to water containing a 10-4 dilution of 24dMACP, the animals are given the choice between plain water and water with decreasing concentrations of 24dMACP (10^−4, 10^−6, 5×10^−7 and 10^−7). Note that all tested animals are homozygous for M71G, so even WT have a functional M71 OR.
The results are presented as a preference index (PI) for the odorized water for each group of animals which is calculated as the amount of the odorized water consumed divided by the total amount of liquid (odor and no-odor water) consumed over a 24 hr time period (FIG. 3A). A PI of 50% reflects no preference of the animal. […] When presented with 10^−4 and 10^−6 dilutions, both conditioned 4•M71Cα homo and WT animals show a clear aversion towards 24dMACP reflected through an average PI for 24dMACP of about 10%. However, when 24dMACP is delivered at 10^−7 all animals fail to detect the presence of the odor with an average PI of 53.41% for the WT (n=4) and 62.67% for the homozygous animals (n=8).
To compare specific odorant sensitivity between the 5•M71Cα and the 4•M71Cα line, the 2-bottle discrimination behavioral task was performed with 24dMACP as described above (FIG. 3B). […] Even though the same but slightly more significant 0.3 log decrease in odorant detection threshold is observed in the 5•M71Cα line, it is important to mention that 5•M71Cα hemi animals were used which have about 1.6% of their OSNs expressing M71 (similar to the 4•M71Cα homo animals with about 2% M71 expressing OSNs).
Olfactory behavior test: A two-bottle discrimination test was performed as previously described. Since the mice are tested for the ability to detect a single odor in drinking water at increasingly lower concentrations, this discrimination assay is also considered a detection threshold test. Mice 8 weeks old were individually housed and given food ad libitum but restricted access to saccharin-phthalic acid solution (2.1×10^−2 M sodium saccharin and 10^−3M phthalic acid pH 6.5) for 1 h twice a day for two days before the assay begins. This ensures mice would commence drinking the solution during the conditioning. On day 3 (conditioning day) mice are exposed to sodium saccharine phthalic acid (SSPA) solution with 1 dilution of odorized water for 10 minutes. Immediately after, they are injected with lithium chloride intraperitoneally (15 μl/g body weight of a 0.6 M solution) to induce the aversive malaise and lethargy state. After two hours mice are returned to their home cage and given access to two bottles of drinking water; they are given the choice between SSPA solution containing a 10^−4 dilution of the odor versus the non-odorized SSPA solution. During the following 3 days, every 24 hours, the location of the bottles is reversed and the concentration of the odorized solution is decreased to 10^−6, 10^−7 and 0.5×10^−6, respectively. Every day both bottles are weighed to determine the amount of liquid consumed. A preference index was calculated as the amount of odorized solution consumed divided by the total amount of water solution consumed for each mouse for every 24 hour test period at each odor concentration. Student's t test was performed to test statistical significance, assuming two-tailed distribution and two-sample unequal variance. Values are mean±SEM and are plotted on a LOG scale.

[2] = biological target: T2, M71 (Mus musculus, UniProt Q60893); details: previous ex vivo data; liquid phase; cited from earlier work
T2 construct: from ex vivo analysis of genetically defined M71 OSNs in gene-targeted mice; host or cells: dendritic knobs of M71-expressing olfactory sensory neurons from gene-targeted mice
T2 sequence (Q60893 1-309): T1 sequence (Q60893 1-309)

- average PI ([1]; 5•M71Cα hemi group, dilution 5×10^−7): 19.62%
- decrease in odorant detection threshold ([1]; 5•M71Cα line vs WT (same as 4•M71Cα line)): 0.3 log
- average PI ([1]; WT group of the 5•M71Cα experiment, dilution 5×10^−7): 55.32%
- average PI ([1]; conditioned 4•M71Cα homo and WT animals, 10^−4 and 10^−6 dilutions): about 10%
- PI ([1]; conditioned 4•M71Cα homozygous mutants, 5×10^−7 dilution): 26.12%
- average PI ([1]; conditioned 4•M71Cα homozygous, 10^−7 dilution): 62.67%
- PI ([1]; conditioned WT (littermates of 4•M71Cα), 5×10^−7 dilution): 62.79%
- PI ([1]; conditioned WT, 10^−4 dilution): 11.84%
- average PI ([1]; conditioned WT, 10^−7 dilution): 53.41%
SMILES: CC(=O)c1ccc(C)cc1C [24dMACP, 2,4-dimethyl acetophenone]
- elicit a M71 response ex vivo [2]: did

From patent US12063914B2, “DNA sequence that increases odorant receptor representation in the olfactory system” (Research Foundation of the City University of New York, priority 2015, dated 2024)
